Test results reported in US20260034125A1, “N-PHENYL-1-(PHENYLSULFONYL)PIPERIDIN-4-AMINE DERIVATIVES AS CCR6 INHIBITORS” (priority 2023, published 2026).

system: Human CD4+ T cells; experiment: CD4+ T cell chemotaxis assay towards CCL20; format: cell-based; conditions: relative -LogIC50, 150 ng/ml CCL20, Transwell, 3 h
Source text: Human CD4+ T cells were isolated from buffy coats of healthy donors using a CD4+ T Cell Isolation Kit (Miltenyi Biotec130-096-533). Isolated T cells were stimulated overnight with anti-CD3 and anti-CD28 antibodies (Biolegend 300314/302934) in growth medium (RPMI1640, 10% heat-inactivated FBS, 1× pen/strep (Gibco 15140)). For the chemotaxis assay, Corning Transwell plates were used with a pore size of 5 μm (Corning 3388). T cells were counted and diluted to 6*10^6 cells/ml in chemotaxis medium (RPMI1640, 1% BSA, pen/strep). Compounds were four-fold serially diluted in DMSO. Further dilutions were made in chemotaxis medium. Cells were incubated with test compounds for 30 min at 37° C. prior to initiation of the assay (3*10^6 cells/ml). Final DMSO concentration in the assay was 0.2%. Wells of the Transwell plates were filled with 200 μl chemotaxis medium containing 150 ng/ml CCL20 (R&D systems 360-MP). 50 μl of the cell/compound suspension was added to the inserts of the Transwell plates (150,000 cells/insert). The Transwell plates were placed in an incubator at 37° C., 5% CO2 for 3 h. After 3 h, the number of migrated cells was quantified using CellTiter Glo (Promega). Percentage inhibition values were calculated based on the low and high signal obtained with 0.2% DMSO in chemotaxis medium without and with CCL20, respectively. The relative −LogIC50 was determined with GraphPad Prism 9 using a four-parameter dose-response model.

`Cc1nnc2ccc(-c3ccc(S(=O)(=O)N4CCC(Nc5ccc(C6(C(F)(F)F)CC6)cn5)CC4)cc3)cn12` [Example 47, N-[1-(4-{3-methyl-[1,2,4]triazolo[4,3-a]pyridin-6-yl}benzenesulfonyl)piperidin-4-yl]-5-[1-(trifluoromethyl)cyclopropyl]pyridin-2-amine] showed an IC50 of 15.8 nM.

target: T1, human CCR6 (Homo sapiens, UniProt P51684); experiment: Human CCR6-Cre reporter assay; format: cell-based; parameters: The second construct contained the open reading frame of human CCR6 in the pUNO1 backbone; host or cells: 293 FT cells; conditions: relative -LogIC50; transfected 293 FT cells, 6 μM Forskolin, 6 nM CCL20, luciferase readout, 5h
T1 sequence (P51684 1-374): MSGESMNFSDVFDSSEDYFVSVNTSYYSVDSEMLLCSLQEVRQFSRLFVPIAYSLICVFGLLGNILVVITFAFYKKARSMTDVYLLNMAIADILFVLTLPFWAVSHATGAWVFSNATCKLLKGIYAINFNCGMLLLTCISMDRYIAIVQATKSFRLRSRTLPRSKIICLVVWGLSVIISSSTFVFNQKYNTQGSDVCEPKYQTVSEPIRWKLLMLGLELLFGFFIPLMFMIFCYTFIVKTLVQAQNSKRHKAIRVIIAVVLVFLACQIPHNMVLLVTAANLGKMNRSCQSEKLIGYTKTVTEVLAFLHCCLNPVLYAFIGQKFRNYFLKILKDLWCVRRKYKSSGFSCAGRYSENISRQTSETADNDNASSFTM
Description: 293 FT cells were transfected with 2 constructs using TransIT-293 (Mirus). The first construct (pGL4.29, Promega) expressed the luciferase reporter gene luc2P in response to the binding of cAMP-induced CREB to the CRE element in its promoter. The second construct contained the open reading frame of human CCR6 in the pUNO1 backbone under the control of an enhanced CMV promoter (In VivoGen). 48h after transfection, cells were harvested and diluted to 750,000 cells/ml in culture medium (DMEM, 10% FBS, 1× pen/strep (Gibco 15140)). Compounds were 2.5-fold serially diluted in DMSO. Further dilutions were made in assay medium (DMEM, 10% FBS, 1× pen/strep, 6 μM Forskolin, 6 nM CCL20). 4 μl of the compound solution was added to a white MW384 plate, followed by 20 μl of the cell suspension. Final DMSO concentration in the assay was 0.1%. The MW384 plate was placed in an incubator at 37° C., 5% CO2 for 5h. Luciferase activity was determined by addition of 24 μl of a 2.5× diluted BriteLite luciferase solution (Perkin Elmer), followed by luminescence measurement using a VICTOR Plate reader (Perkin Elmer). […] The relative-LogIC50 was determined with GraphPad Prism 9 using a four-parameter dose-response model.

Point of comparison: `N#CC1(c2ccc(N[C@H]3CC[C@H](S(=O)(=O)c4ccc(-c5ccc6nccn6c5)cc4)CC3)cc2)CC1` [Example 15, 1-(4-{[trans-4-(4-{imidazo[1,2-a]pyridin-6-yl}benzenesulfonyl)cyclohexyl]Amino}phenyl)cyclopropane-1-carbonitrile], IC50 158 nM. Against it:
- N#CC1(c2ccc(NC3CCN(S(=O)(=O)c4ccc(N5CCC(CNC(N)=O)CC5)cc4)CC3)nc2)CC1 [Example 25, [(1-{4-[(4-{[5-(1-cyanocyclopropyl)pyridin-2-yl]amino}piperidin-1-yl)sulfonyl]phenyl}piperidin-4-yl)methyl]urea] — 80-fold higher, 12600 nM
- N#CC1(c2ccc(NC3CCN(S(=O)(=O)c4ccc(N5CCC6(CC5)COC6)cc4)CC3)nc2)CC1 [Example 29, 1-(6-{[1-(4-{2-oxa-7-azaspiro[3.5]nonan-7-yl}benzenesulfonyl)piperidin-4-yl]amino}pyridin-3-yl)cyclopropane-1-carbonitrile] — 63-fold higher, 10000 nM
- N#CC1(c2ccc(NC3CCN(S(=O)(=O)c4ccc(N5CCC6(CCNC6=O)CC5)cc4)CC3)nc2)CC1 [Example 28, 1-(6-{[1-(4-{1-oxo-2,8-diazaspiro[4.5]decan-8-yl}benzenesulfonyl)piperidin-4-yl]amino}pyridin-3-yl)cyclopropane-1-carbonitrile] — 250-fold higher, 39800 nM
- O=S(=O)(c1ccc(-c2ccc3nccn3c2)cc1)[C@H]1CC[C@H](Nc2ccc(C3CC3(F)F)cc2)CC1 (stereo partly drawn) [Example 14, 4-(2,2-difluorocyclopropyl)-N-[trans-4-(4-{imidazo[1,2-a]pyridin-6-yl}benzenesulfonyl)cyclohexyl]aniline] — 1.6-fold higher, 251 nM
- CC(C)c1nnc2cnc(-c3ccc(S(=O)(=O)N4CCC(Nc5ccc(C6(C(F)(F)F)CC6)cn5)CC4)cc3)cn12 [Example 39, N-(1-{4-[3-(propan-2-yl)-[1,2,4]triazolo[4,3-a]pyrazin-6-yl]benzenesulfonyl}piperidin-4-yl)-5-[1-(trifluoromethyl)cyclopropyl]pyridin-2-amine] — 2.5-fold lower, 63.1 nM
- O=S(=O)(c1ccc(-c2ccc3nccn3c2)cc1)N1CCC(Nc2ccc(C3(C(F)(F)F)CC3)cc2)CC1 [Example 9, 1-(4-{imidazo[1,2-a]pyridin-6-yl}benzenesulfonyl)-N-{4-[1-(trifluoromethyl)cyclopropyl]phenyl}piperidin-4-amine] — 1.6-fold lower, 100 nM
- N=S(=O)(c1ccc(-c2ccc3nccn3c2)cc1)[C@H]1CC[C@H](Nc2ccc(C3(C(F)(F)F)CC3)cc2)CC1 (stereo partly drawn) [Example 13, (4-{imidazo[1,2-a]pyridin-6-yl}phenyl) [trans-4-({4-[1-(trifluoromethyl)cyclopropyl]phenyl}Amino)cyclohexyl](imino)-26-sulfanone] — 1.6-fold higher, 251 nM
- Cc1n[nH]c2ccc(-c3ccc(S(=O)(=O)N4CCC(Nc5ccc(C6(C(F)(F)F)CC6)cc5)CC4)cc3)cc12 [Example 2, 1-[4-(3-methyl-1H-indazol-5-yl)benzenesulfonyl]-N-{4-[1-(trifluoromethyl)cyclopropyl]phenyl}piperidin-4-amine] — 2-fold lower, 79.4 nM
- Cc1n[nH]c2ccc(-c3ccc(S(=O)(=O)N4CCC(Nc5ccc(C6CC6)cc5)CC4)cc3)cc12 [Example 11, N-(4-cyclopropylphenyl)-1-[4-(3-methyl-1H-indazol-5-yl)benzenesulfonyl]piperidin-4-amine] — 3.2-fold higher, 501 nM
- N#Cc1ccc(-c2ccc(S(=O)(=O)N3CCC(Nc4ccc(C5(C#N)CC5)cc4)CC3)cc2)cc1 [Example 1, 4′-[(4-{[4-(1-cyanocyclopropyl)phenyl]Amino}piperidin-1-yl)sulfonyl]-[1,1′-biphenyl]-4-carbonitrile] — 3.2-fold higher, 501 nM
- CC(C)c1cnc2ccc(-c3ccc(S(=O)(=O)N4CCC(Nc5ccc(C6(C(F)(F)F)CC6)cn5)CC4)cc3)cn12 [Example 38, N-(1-{4-[3-(propan-2-yl)imidazo[1,2-a]pyridin-6-yl]benzenesulfonyl}piperidin-4-yl)-5-[1-(trifluoromethyl)cyclopropyl]pyridin-2-amine] — 2.5-fold lower, 63.1 nM
- N#CC1(c2ccc(NC3CCN(S(=O)(=O)c4ccc(N5CCC(CC(N)=O)CC5)cc4)CC3)nc2)CC1 [Example 24, 2-(1-{4-[(4-{[5-(1-cyanocyclopropyl)pyridin-2-yl]amino}piperidin-1-yl)sulfonyl]phenyl}piperidin-4-yl) acetamide] — 32-fold higher, 5010 nM
- N#CC1(c2ccc(NC3CCN(S(=O)(=O)c4ccc(N5CCC6(CC5)COC(=O)N6)cc4)CC3)nc2)CC1 [Example 27, 1-(6-{[1-(4-{2-oxo-3-oxa-1,8-diazaspiro[4.5]decan-8-yl}benzenesulfonyl)piperidin-4-yl]amino}pyridin-3-yl)cyclopropane-1-carbonitrile] — 50-fold higher, 7940 nM
- CC(C)c1cnc2ccc(-c3ccc(S(=O)(=O)N4CCC(Nc5ccc(C6(C(F)(F)F)CC6)cc5)CC4)cc3)cn12 [Example 10, 1-{4-[3-(propan-2-yl)imidazo[1,2-a]pyridin-6-yl]benzenesulfonyl}-N-{4-[1-(trifluoromethyl)cyclopropyl]phenyl}piperidin-4-amine] — 1.6-fold lower, 100 nM
- CC(C)c1cnc2ccc(-c3ccc(S(=O)(=O)N4CCC(Nc5ccc(C6(C#N)CC6)cn5)CC4)cc3)cn12 [Example 34, 1-{6-[(1-{4-[3-(propan-2-yl)imidazo[1,2-a]pyridin-6-yl]benzenesulfonyl}piperidin-4-yl)amino]pyridin-3-yl}cyclopropane-1-carbonitrile] — within 1.5-fold, 200 nM
- O=S(=O)(c1ccc(-c2ccc3nccn3c2)cc1)[C@H]1CC[C@H](Nc2ccc(C3COC3)cc2)CC1 [Example 18, 4-(oxetan-3-yl)-N-[trans-4-(4-{imidazo[1,2-a]pyridin-6-yl}benzenesulfonyl)cyclohexyl]aniline] — 2.5-fold higher, 398 nM
- N#CC1(c2ccc(NC3CCN(S(=O)(=O)c4ccc(-c5ccc6nccn6c5)cc4)CC3)nc2)CC1 [Example 33, 1-(6-{[1-(4-{imidazo[1,2-a]pyridin-6-yl}benzenesulfonyl)piperidin-4-yl]amino}pyridin-3-yl)cyclopropane-1-carbonitrile] — 5-fold higher, 794 nM
- N#CC1(c2ccc(NC3CCN(S(=O)(=O)c4ccc(N5CCC6(CC5)CC(=O)NC(=O)C6)cc4)CC3)nc2)CC1 [Example 26, 1-(6-{[1-(4-{8,10-dioxo-3,9-diazaspiro[5.5]undecan-3-yl}benzenesulfonyl)piperidin-4-yl]amino}pyridin-3-yl)cyclopropane-1-carbonitrile] — 16-fold higher, 2510 nM
- N#Cc1c[nH]c2ccc(-c3ccc(S(=O)(=O)N4CCC(Nc5ccc(C6(C(F)(F)F)CC6)cc5)CC4)cc3)cc12 [Example 8, 5-(4-{[4-({4-[1-(trifluoromethyl)cyclopropyl]phenyl}Amino)piperidin-1-yl]sulfonyl}phenyl)-1H-indole-3-carbonitrile] — 4-fold lower, 39.8 nM
- COC1CC2(CCN(c3ccc(S(=O)(=O)N4CCC(Nc5ccc(C6(C#N)CC6)cn5)CC4)cc3)CC2)C1 [Example 23, 1-(6-{[1-(4-{2-methoxy-7-azaspiro[3.5]nonan-7-yl}benzenesulfonyl)piperidin-4-yl]amino}pyridin-3-yl)cyclopropane-1-carbonitrile] — 8-fold higher, 1260 nM
